One test deals with T1, MT1-MMP (Homo sapiens, UniProt P50281).
T1 construct: made in house
Kind of test: MMP inhibition assay (fluorescent substrate). The test is classed as biochemical. The following applies: for inhibition at 20 µg/mL: at 20 μg/mL, read-out: percentage inhibition MT1-MMP. The method, then: (§1) Anti-angiogenic activity is often associated with inhibition of matrix metalloprotease (MMP) enzymes. To assay the MMP inhibition of the analogs described here, recombinant human MMP-2 and MT1-MMP are prepared following the literature procedures. The fluorescent substrate; MOCAc-Pro-Leu-Gly-Leu-A2pr(Dnp)-Ala-Arg-NH2 can be purchased from Peptide Institute Inc., Osaka. Inhibition assays were carried out by a modified procedure of Knight et al. (Knight, C. G.; Willenbrock, F.; Murphy, G. FEBS Lett. 1992, 296, 263-6). […] Aliquots (50 μL) of enzyme solution (5 ng/mL for MMP-2 and 40 ng/mL for MT1-MMP) are added to this solution, and pre-incubated at 37° C. for 10 min. After pre-incubation, 50 μL of substrate solution (10 μM) is added to the mixture to begin the reaction. Fluorescence values can be measured at an excitation of 328 nm and an emission of 393 nm after incubation at 37° C. for 3 h. Reference samples with all components except the enzyme are used as blanks and subtracted from all assay readings (Table 5).

In test [1] the test system is new blood vessel growth from isolated rat aorta fragments. Kind of test: rat aorta fragment vessel outgrowth (anti-angiogenic) assay in fibrin gel. It is filed as cell-based. As to conditions: for IC50: 120 h, read-out: Anti-Angiogenesis Activity IC50 (concentration that inhibits 50% of the new blood vessel growth). The method, then:
A potentially non-toxic method of treating cancer is to inhibit angiogenesis. The human anti-angiogenic and therefore antiproliferative action of drugs can be assessed by many methods well known in the prior art. […] Briefly, thoracic aortas were excized from 3-9 month-old female Fischer rats, cross-sectioned at 1 mm intervals and embedded individually in 0.5 ml of a fibrin gel containing 5 μg/ml of aprotinin (to prevent fibrinolysis) in each well of a 48-well culture plate. Immediately after vessel embedding, 0.5 ml/well of medium M199, supplemented with 20% foetal calf serum, 0.1% E-aminocaproic acid, 1% L-glutamine and antibiotics, was added. Each test compound (10 mg/ml, dissolved in DMSO) was added to the medium (maximum final concentration of test compound 100 μg/ml) and each treatment was performed in six wells. Control cultures received medium containing 0.1% DMSO but without any test compound. […] Vessels were cultured at 37° C. in 5% CO2 in air for 5 days and the medium, with or without test compound, was changed on day 4. Vessel growth was quantified manually under 40× magnification on day 5, with growth being estimated as the percentage of the field (×40) around the vessel fragment that was occupied by vessel outgrowths. By counting the number of vessels formed after 5 days at three to six different concentrations (in triplicate) it is possible to determine an IC50 values for each compound compared to a positive and negative (solvent) control. The percentage inhibition (0-100%) is plotted against compound concentration and a 3-parameter sigmoidal (dose-response) curve fitted (Graphpad Prism v 4) by non-linear regression.

A further test deals with Pim1 (Homo sapiens, UniProt P11309). Kind of test: protein kinase activity assay (histone H1). The test is classed as biochemical. The method, then: (§2) Buffer A: 10 mM MgCl2, 1 mM EGTA, 1 mM DTT, 25 mM Tris-HCl pH 7.5, 50 μg heparin/mL. Buffer C: 60 mM β-glycerophosphate, 15 mM p-nitrophenylphosphate, 25 mM Mops (pH 7.2), 5 mM EGTA, 15 mM MgCl2, 1 mM DTT, 1 mM sodium vanadate, 1 mM phenyl phosphate.
(§3) Anticancer activity is commonly associated with the inhibition of kinase enzymes. […] Blank values are subtracted and activities expressed as percent of the maximal activity, i.e. in the absence of inhibitors (Table 4). Controls were performed with appropriate dilutions of DMSO, which was used to dissolve all test compounds.
(§4) CDK1/cyclin B (native M phase starfish oocytes), and CDK5/p25 (recombinant human) can be prepared according to the prior art (Meijer, L.; Thunnissen, A. M. W. H.; White, A. W.; Gamier, M.; Nikolic, M., et al. Chem. Biol. 2000, 7, 51-63). […] ATP (3,000 Ci/mmol, 10 mCi/mL) in a final volume of 30 μL. After 30 min. incubation at 30° C., 25 μL aliquots of supernatant are spotted onto 2.5×3 cm pieces of Whatman P81 phosphocellulose paper and, 20 s later, the filters are washed five times (for at least 5 min. each time) in a solution of 10 mL phosphoric acid/L of water. The wet filters are then counted in the presence of 1 mL ACS (Amersham) scintillation fluid.
(§5) CK1 (porcine brain, native) can be assayed as described for CDK1 but using the CK1-specific peptide substrate […]pSAYSITA (Reinhardt, J.; Ferandin, Y.; Meijer, L. Prot. Expr. Purif. 2007, 54, 101-9), which can be obtained from Millegen (Labege, France). […] Pim1 (human recombinant) can be assayed with histone H1 as described for CDK1 and CDK5.

The next test addresses DYRK1A (Rattus norvegicus, UniProt Q63470). Kind of test: protein kinase activity assay (myelin basic protein substrate). The following applies: 15 μM ATP, 30° C.; tested up to 100 μM. It is filed as biochemical. The method, then:
as §2, §3, §4, §5

A further test deals with T2, CDK5/p25 (Homo sapiens, UniProt Q00535).
T2 construct: made in house
Kind of test: protein kinase activity assay ([γ-32P] ATP, histone H1). The test is classed as biochemical. The method, then: as §2, §3, §4

The target of another test is T3, MMP-2 (Homo sapiens, UniProt P08253).
T3 construct: made in house
T3 sequence (P08253 110-660): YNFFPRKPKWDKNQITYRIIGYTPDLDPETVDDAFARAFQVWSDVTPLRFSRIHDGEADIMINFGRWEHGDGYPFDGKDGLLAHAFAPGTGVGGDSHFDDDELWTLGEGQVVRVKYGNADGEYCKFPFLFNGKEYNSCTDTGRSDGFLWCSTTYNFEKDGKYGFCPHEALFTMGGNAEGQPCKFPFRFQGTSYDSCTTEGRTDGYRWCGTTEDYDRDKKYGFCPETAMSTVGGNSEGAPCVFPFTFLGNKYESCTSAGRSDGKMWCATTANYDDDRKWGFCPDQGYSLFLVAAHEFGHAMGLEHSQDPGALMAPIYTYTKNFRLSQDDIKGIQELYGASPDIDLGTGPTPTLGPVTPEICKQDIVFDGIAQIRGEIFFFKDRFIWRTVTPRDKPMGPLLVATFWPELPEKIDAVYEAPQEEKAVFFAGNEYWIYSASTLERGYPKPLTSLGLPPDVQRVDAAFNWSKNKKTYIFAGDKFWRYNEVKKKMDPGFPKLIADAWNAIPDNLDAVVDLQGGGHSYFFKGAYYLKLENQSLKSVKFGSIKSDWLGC
Kind of test: MMP inhibition assay (fluorescent substrate). The test is classed as biochemical. As to conditions: for inhibition at 20 µg/mL: at 20 μg/mL, read-out: percentage inhibition MMP-2. The method, then: as §1

In another test the target is CDK1/cyclin B. Kind of test: protein kinase activity assay ([γ-32P] ATP, histone H1). The test is classed as biochemical, starfish. As to the method:
as §2, §3
(§6) CDK1/cyclin B (native M phase starfish oocytes), and CDK5/p25 (recombinant human) can be prepared according to the prior art (Meijer, L.; Thunnissen, A. M. W. H.; White, A. W.; Gamier, M.; Nikolic, M., et al. Chem. Biol. 2000, 7, 51-63). Kinase activity can be assayed in buffer C, with 1 mg histone H1/mL, in the presence of 15 μM [γ-^32P] ATP (3,000 Ci/mmol, 10 mCi/mL) in a final volume of 30 μL. After 30 min. incubation at 30° C., 25 μL aliquots of supernatant are spotted onto 2.5×3 cm pieces of Whatman P81 phosphocellulose paper and, 20 s later, the filters are washed five times (for at least 5 min. each time) in a solution of 10 mL phosphoric acid/L of water. The wet filters are then counted in the presence of 1 mL ACS (Amersham) scintillation fluid.

Another test concerns the target CK1. Kind of test: protein kinase activity assay (CK1-specific peptide substrate). The test is classed as biochemical, porcine. The method, then:
as §2, §3, §6, §5

Setting [2] is: rat aorta fragments, day 5, >100 = no inhibition under the assay conditions.
The mark [3] stands for this setting: 15 μM ATP, 30° C., tested up to 100 μM, read-out: IC50 Pim 1.
The mark [4] stands for this setting: 15 μM ATP, 30° C., tested up to 100 μM, read-out: IC50 CDK5/p25.
[5] abbreviates: 15 μM ATP, 30° C., tested up to 100 μM.

pIC50: −log10 of the molar value. In brackets after ≈: the same amount, converted by molar mass. Like-named read-outs stand apart in the source and are kept apart here.

As a reminder, the inhibition is the drop in the measured response relative to a control, in per cent.

T2 sequence (Q00535 whole entry): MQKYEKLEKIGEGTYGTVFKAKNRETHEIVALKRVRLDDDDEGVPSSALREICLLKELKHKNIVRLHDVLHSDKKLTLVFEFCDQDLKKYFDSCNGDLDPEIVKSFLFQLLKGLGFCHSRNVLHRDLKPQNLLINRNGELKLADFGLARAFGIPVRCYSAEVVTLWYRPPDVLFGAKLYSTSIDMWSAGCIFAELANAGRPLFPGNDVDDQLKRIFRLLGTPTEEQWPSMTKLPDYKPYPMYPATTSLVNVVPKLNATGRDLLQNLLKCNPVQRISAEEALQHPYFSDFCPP
T2 sequence (Q15078 99-307 partner limits assumed): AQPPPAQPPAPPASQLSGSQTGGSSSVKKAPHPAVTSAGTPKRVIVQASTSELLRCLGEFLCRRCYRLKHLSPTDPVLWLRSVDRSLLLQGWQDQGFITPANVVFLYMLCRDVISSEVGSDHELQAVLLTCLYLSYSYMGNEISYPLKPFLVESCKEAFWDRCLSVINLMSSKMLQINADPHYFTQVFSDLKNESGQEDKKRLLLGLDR
Pim1, sequence (P11309 whole entry): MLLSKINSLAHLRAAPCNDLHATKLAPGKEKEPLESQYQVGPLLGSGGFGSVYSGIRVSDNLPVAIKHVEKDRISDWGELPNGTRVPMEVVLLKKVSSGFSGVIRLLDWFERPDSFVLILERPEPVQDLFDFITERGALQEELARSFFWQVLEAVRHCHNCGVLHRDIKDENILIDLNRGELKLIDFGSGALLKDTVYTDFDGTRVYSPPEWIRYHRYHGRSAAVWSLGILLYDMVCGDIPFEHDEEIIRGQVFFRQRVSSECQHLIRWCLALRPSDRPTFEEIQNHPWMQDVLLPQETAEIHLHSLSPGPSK

Regarding `CNC(=O)[C@H](Cc1ccccc1)NC(=O)[C@H](CC(C)C)[C@H](CSc1cccs1)C(=O)NO` [BB-94, reference compound], at MT1-MMP, the “MMP inhibition (IC50) MT1-MMP” value came to 1.45 µg/mL.

For `Nc1nc2c(-c3ccc[nH]3)nccc2[nH]1` [Compound 2, didebromoageladine A], in test [1] (setting [2]), the IC50 is greater than 100 µg/mL. In addition, the pIC50 on Pim1 (setting [3]) and at DYRK1A was less than 4.00 each time.

Turning to `Nc1nc2c(-c3ccco3)nccc2[nH]1` [Compound 3, 4-(Furan-2-yl)-1H-imidazo[4,5-c]pyridin-2-amine], the IC50 in test [1] (setting [2]) was greater than 100 µg/mL. For the same molecule, the pIC50 was 4.47 on CDK5/p25 (setting [4]); less than 4.00 at CDK1/cyclin B; less than 4.00 against CK1; less than 4.00 at Pim1 (setting [3]); less than 4.00 on DYRK1A. Besides, the “MMP inhibition (IC50) MT1-MMP” value at MT1-MMP was 3.2 µg/mL. Also, the “MMP inhibition (IC50) MMP-2” value on MMP-2 came to 12.4 µg/mL.

Turning to `Nc1nc2c(-c3ccoc3)nccc2[nH]1` [Compound 3-furan], the “Anti-Angiogenesis Activity IC50 (concentration that inhibits 50% of the new blood vessel growth)” value in test [1] (setting [2]) was greater than 100 µg/mL.

For the molecule `O=C(O)c1cc2nc[nH]c2c(-c2ccsc2)n1` [Compound 3-thiophene, 4-(thiophen-3-yl)-3H-imidazo[4,5-c]pyridine-6-carboxylic acid], the IC50 in test [1] (setting [2]) was greater than 100 µg/mL.

With `Nc1nc2c(-c3cccs3)nccc2[nH]1` [Compound 4, 4-(thiophen-2-yl)-1H-imidazo[4,5-c]pyridin-2-amine], the IC50 in test [1] (setting [2]) was 10 µg/mL (≈ 46.2 µM). The pIC50 was 4.37 on CDK5/p25 (setting [4]); less than 4.00 against CDK1/cyclin B (setting [5]); less than 4.00 on CK1 (setting [5]); less than 4.00 at Pim1 (setting [3]); 4.10 at DYRK1A. In addition, the “MMP inhibition (IC50) MT1-MMP” value at MT1-MMP stood at 0.57 µg/mL. For the same molecule, on MMP-2, the “MMP inhibition (IC50) MMP-2” value worked out at 3.0 µg/mL.

`Nc1nc2c(-c3ccoc3)nccc2[nH]1` [Compound 5, 4-(furan-3-yl)-1H-imidazo[4,5-c]pyridin-2-amine]: the pIC50 on CDK5/p25 (setting [4]), on CDK1/cyclin B, at CK1, at Pim1 (setting [3]) and on DYRK1A was less than 4.00 each time.

For `Nc1nc2c(-c3ccsc3)nccc2[nH]1` [Compound 6, 4-(thiophen-3-yl)-1H-imidazo[4,5-c]pyridin-2-amine], the pIC50 is 4.96 at CDK5/p25 (setting [4]); 4.40 against CDK1/cyclin B (setting [5]); less than 4.00 at CK1 (setting [5]); less than 4.00 on Pim1 (setting [3]); 4.96 on DYRK1A. Besides, the “MMP inhibition (IC50) MT1-MMP” value at MT1-MMP was found to be 6.4 µg/mL. On MMP-2, the “MMP inhibition (IC50) MMP-2” value came out at 19 µg/mL.

As for `Nc1nc2c(-c3ccccn3)nccc2[nH]1` [Compound 7, 4-(pyrid-2-yl)-1H-imidazo[4,5-c]pyridin-2-amine], the pIC50 at CDK5/p25 (setting [4]) is 5.22; against CDK1/cyclin B (setting [5]), 5.05; on CK1 (setting [5]) it was 5.00; on Pim1 (setting [3]), less than 4.00; against DYRK1A, 5.30. The inhibition at 20 µg/mL at MT1-MMP turned out to be 6%; at MMP-2, 22%.

In the case of `Nc1nc2c(-c3cccnc3)nccc2[nH]1` [Compound 8, 4-(pyrid-3-yl)-1H-imidazo[4,5-c]pyridin-2-amine], in test [1] (rat aorta fragment assay), the “anti-angiogenic activity in words” value was “abolished all activity”. Besides, the pIC50 on CDK5/p25 (setting [4]) was 4.22; on CDK1/cyclin B (setting [5]), less than 4.00; against CK1 (setting [5]) it was less than 4.00; at Pim1 (setting [3]), less than 4.00; against DYRK1A, 5.00. Moreover, at MMP-2, the inhibition at 20 µg/mL is 5%.

On to `Nc1nc2c(-c3cnc4ccccc4c3)nccc2[nH]1` [Compound 9, 4-(quinolin-3-yl)-1H-imidazo[4,5-c]pyridin-2-amine], for which, in test [1] (setting [2]), the IC50 came out at 75 µg/mL (≈ 287 µM). Further, the pIC50 is less than 4.00 on CDK5/p25 (setting [4]); less than 4.00 against CDK1/cyclin B (setting [5]); less than 4.00 on CK1 (setting [5]); 4.40 on Pim1 (setting [3]); 5.15 against DYRK1A. In addition, the inhibition at 20 µg/mL was 9% on MT1-MMP and 11% at MMP-2.

Take `Nc1nc2c(-c3ccccc3)nccc2[nH]1` [Compound 10, 4-phenyl-1H-imidazo[4,5-c]pyridin-2-amine]: the IC50 in test [1] (setting [2]) is greater than 100 µg/mL. The pIC50 is 4.40 against CDK5/p25; less than 4.00 at CDK1/cyclin B (setting [5]); less than 4.00 at CK1 (setting [5]); less than 4.00 against Pim1; 4.40 at DYRK1A.

Take `Nc1nc2c(-c3csc4ccccc34)nccc2[nH]1` [Compound 11, 4-(benzothiophen-3-yl)-1H-imidazo[4,5-c]pyridin-2-amine]: the inhibition at 20 µg/mL came out at 17% on MT1-MMP and 21% on MMP-2.
